Data from ChEMBL document CHEMBL1201862, “PubChem BioAssay data set” (2004).
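In this assay, cells in 96-well plates receive the compound at five concentrations for 48 hours. Endpoints are linearly interpolated between the surrounding concentrations. GI50 = concentration required for 50% inhibition of growth.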 Calls of active or inactive are those of the source. No stated cut-off is given here; in the data, active = GI50 up to about 1.1 µM and inactive = higher.

Assays:
Assay in all cases: growth of human tumour cells (NCI), 48 h
[1] = system: UACC-257
[2] = system: T47D
[3] = system: HOP-62
[4] = system: COLO 205
[5] = system: LOX IMVI
[6] = system: SNB-75
[7] = system: UO-31
[8] = system: MDA-MB-231
[9] = system: A549
[10] = system: EKVX
[11] = system: SF-539
[12] = system: ACHN
[13] = system: HCT-116
[14] = system: M14
[15] = system: UACC-62
[16] = system: SK-MEL-2
[17] = system: RXF 393
[18] = system: DU-145
[19] = system: A498

Measured: GI50

CC1(C)N=C(/C(C#N)=[N+](/[O-])C(=O)c2ccccc2)C(C)(C)N1O
inactive: [1] > 100 µM | [2] > 100 µM | [3] > 100 µM | [4] > 100 µM | [5] > 100 µM | [6] > 100 µM | [7] > 100 µM | [8] > 100 µM | [9] > 100 µM | [10] > 100 µM | [11] > 100 µM | [12] > 100 µM | [13] > 100 µM | [14] > 100 µM | [15] > 100 µM | [16] > 100 µM | [17] > 100 µM | [18] > 100 µM

C[n+]1ccccc1/C1=c2\cc/c([nH]2)=C(\c2cccc[n+]2C)C2=N/C(=C(/c3cccc[n+]3C)C3C=CC(N3)/C(c3cccc[n+]3C)=C3/C=CC1=N3)C=C2
inactive: [1] > 100 µM | [2] > 100 µM | [3] > 100 µM | [4] 75.2 µM | [5] > 100 µM | [7] > 100 µM | [9] > 100 µM | [19] > 100 µM | [10] > 100 µM | [11] > 100 µM | [12] > 100 µM | [13] 46.3 µM | [14] > 100 µM | [15] > 100 µM | [16] > 100 µM | [17] > 100 µM | [18] > 100 µM

CCOC(=O)/C=C(\C(=O)OCC)n1cc(C)c(=O)n(Cc2cn(COCCOC(C)=O)nn2)c1=O
inactive: [1] 17.4 µM | [2] 21.3 µM | [3] 20.3 µM | [4] 2.86 µM | [5] 15.9 µM | [6] 21 µM | [7] 14 µM | [8] 20.1 µM | [9] 27.5 µM | [10] 10.5 µM | [11] 3.61 µM | [12] 7.62 µM | [13] 20.5 µM | [15] 17.8 µM | [16] 17.3 µM | [17] 11.6 µM | [18] 34.9 µM

COc1ccccc1-n1nnc2c(N)nc(N)nc21
inactive: [1] > 100 µM | [2] > 100 µM | [3] > 100 µM | [4] > 100 µM | [5] > 100 µM | [6] > 100 µM | [7] > 100 µM | [8] > 100 µM | [9] > 100 µM | [19] > 100 µM | [10] > 100 µM | [11] > 100 µM | [12] > 100 µM | [13] > 100 µM | [14] > 100 µM | [15] > 100 µM | [16] > 100 µM | [18] > 100 µM

COC(=O)C(Cc1nc2ccccc2nc1O)/C(=N\NC(C)(C)C)C(=O)Nc1c(C)cc(Br)cc1C (stereo unspecified)
inactive: [1] 33.9 µM | [3] 35 µM | [4] 17.4 µM | [5] 19.3 µM | [7] 50.4 µM | [9] 50.9 µM | [19] 12.7 µM | [10] 36.4 µM | [11] 19.9 µM | [12] 32.9 µM | [13] 18.6 µM | [14] 21.8 µM | [15] 19 µM | [16] 31 µM

CCOC(=O)N1CCN(Cc2cc(=O)n3cc(C)ccc3n2)CC1
inactive: [1] > 100 µM | [3] > 100 µM | [4] > 100 µM | [5] > 100 µM | [6] > 100 µM | [7] > 100 µM | [8] > 100 µM | [9] > 100 µM | [10] > 100 µM | [11] > 100 µM | [12] > 100 µM | [13] > 100 µM | [14] > 100 µM | [15] > 100 µM | [16] > 100 µM | [18] > 100 µM

CC(=O)OCC(=O)OC[C@H](OCc1ccccc1)[C@@H]1[C@H](OC(C)=O)C(=O)N1Cc1ccccc1
inactive: [1] > 100 µM | [3] > 100 µM | [4] > 100 µM | [5] > 100 µM | [6] > 100 µM | [7] > 100 µM | [8] > 100 µM | [9] > 100 µM | [19] > 100 µM | [10] > 100 µM | [12] > 100 µM | [13] > 100 µM | [14] > 100 µM | [15] > 100 µM | [16] > 100 µM | [18] > 100 µM

COc1cc(OC)nc(Nc2c(C#N)c3nc4ccccc4n3c3ccccc23)n1
inactive: [1] 52.7 µM | [2] > 100 µM | [3] 16.6 µM | [4] > 100 µM | [5] 21.4 µM | [6] 16.4 µM | [7] 53.1 µM | [9] > 100 µM | [10] 72.3 µM | [11] 17.6 µM | [12] 18.7 µM | [13] 29.6 µM | [14] > 100 µM | [15] 37.1 µM | [16] 25.8 µM | [17] 39.8 µM | [18] > 100 µM

CC1(C2CCC3(C)C(C2)C3Sc2ccccc2)OCCO1 (stereo unspecified)
inactive: [1] 17.5 µM | [3] 20.2 µM | [4] 19.4 µM | [5] 23.7 µM | [6] 54.6 µM | [7] 12.6 µM | [9] 24.2 µM | [19] 18.8 µM | [10] 26.7 µM | [11] 20.8 µM | [12] 20.7 µM | [13] 15.5 µM | [14] 37 µM | [15] 19.4 µM | [16] 16.8 µM | [17] 15 µM

O=c1[nH]nc(Cc2ccccc2)n1CCO
inactive: [1] > 100 µM | [2] > 100 µM | [4] > 100 µM | [5] > 100 µM | [7] > 100 µM | [8] > 100 µM | [9] > 100 µM | [19] > 100 µM | [10] > 100 µM | [11] > 100 µM | [12] > 100 µM | [13] > 100 µM | [14] > 100 µM | [15] > 100 µM | [16] > 100 µM | [18] > 100 µM

CCOC(=O)[C@H](Cc1ccccc1)NC(=O)c1nc[nH]c1[N+](=O)[O-]
inactive: [1] > 100 µM | [3] > 100 µM | [4] > 100 µM | [5] > 100 µM | [6] > 100 µM | [7] > 100 µM | [9] > 100 µM | [19] > 100 µM | [10] > 100 µM | [11] > 100 µM | [12] > 100 µM | [13] > 100 µM | [14] > 100 µM | [15] > 100 µM | [16] > 100 µM

COP(=O)(CP(=O)(OC)OCCC(C)CCC=C(C)C)OC (stereo unspecified)
inactive: [1] > 100 µM | [2] > 100 µM | [3] 69.7 µM | [4] > 100 µM | [5] > 100 µM | [6] > 100 µM | [7] > 100 µM | [8] 19.1 µM | [9] > 100 µM | [19] > 100 µM | [10] > 100 µM | [11] > 100 µM | [12] > 100 µM | [13] > 100 µM | [14] > 100 µM | [16] > 100 µM | [17] > 100 µM

O=C1CC(c2cccc(Cl)c2)Oc2ccccc21 (stereo unspecified)
inactive: [1] 16.9 µM | [2] 12.7 µM | [3] 17.1 µM | [4] 23.7 µM | [5] 20 µM | [6] 22.6 µM | [7] 13.8 µM | [8] 34.5 µM | [19] 24.7 µM | [10] 14.8 µM | [11] 18.2 µM | [12] 16.2 µM | [13] 15.9 µM | [14] 18.1 µM | [15] 14.9 µM | [16] 19.9 µM | [18] 17.7 µM

COc1ccc(NC(=S)Nc2c(C)n(C)n(-c3ccccc3)c2=O)cc1
inactive: [1] > 100 µM | [3] > 100 µM | [4] > 100 µM | [5] > 100 µM | [6] > 100 µM | [7] > 100 µM | [8] > 100 µM | [9] > 100 µM | [19] > 100 µM | [10] > 100 µM | [11] > 100 µM | [12] > 100 µM | [13] > 100 µM | [14] > 100 µM | [15] > 100 µM | [17] > 100 µM | [18] > 100 µM

CC(C)(Br)C(=O)N1CCN(C(c2ccccc2)c2ccccc2)CC1
inactive: [1] 41.9 µM | [3] 43.5 µM | [4] > 100 µM | [5] > 100 µM | [6] > 100 µM | [7] 68.7 µM | [8] > 100 µM | [9] > 100 µM | [19] > 100 µM | [10] 40.6 µM | [11] > 100 µM | [12] > 100 µM | [13] 32.2 µM | [14] > 100 µM | [15] > 100 µM | [16] > 100 µM | [17] 31.3 µM | [18] 50.6 µM

C[C@@H](C1CC[C@H]2[C@@H]3[C@@H]4O[C@@H]4[C@@]4(O)CC=CC(=O)[C@]4(C)[C@H]3C[C@H](O)[C@]12C)[C@H]1C[C@]2(C)O[C@]2(C)C(=O)O1 (stereo partly specified)
inactive: [1] > 100 µM | [2] > 100 µM | [4] > 100 µM | [5] > 100 µM | [6] > 100 µM | [7] > 100 µM | [8] > 100 µM | [9] > 100 µM | [19] > 100 µM | [10] > 100 µM | [11] > 100 µM | [12] > 100 µM | [13] > 100 µM | [14] > 100 µM | [15] > 100 µM | [16] > 100 µM | [18] > 100 µM
